Each compound was assayed on BH4 levels in SK-N-BE (2) cells (assay: SKN-N-BE (2) cellular assay, BH4 levels by LC-MS). Conditions: Homo sapiens, SKNBE2, read-out: SK-N-BE(2) IC50, SK-N-BE (2) cells, BH4 levels by LC-MS.
Type: cell-based
In the case of `Cc1c(C(=O)N2CC[C@@H](C(F)(F)F)C[C@H]2C)cnn1-c1nc2c(c(=O)[nH]1)CCC2` (single isomer, unassigned) [Q-0442], the IC50 is reported as 200 nM. For `Cc1c(C(=O)N2CC[C@H](C(F)(F)F)C[C@@H]2C)cnn1-c1nc2c(c(=O)[nH]1)CCC2` (single isomer, unassigned) [Q-0459], the IC50 was 59 nM. For `Cc1c(C(=O)N2CCC(C(F)(F)F)CC2)cnn1-c1nc2ncsc2c(=O)[nH]1` [Q-0433], the IC50 was 58000 nM. For `Cc1c(C(=O)N2CCC(C(F)(F)F)CC2)cnn1-c1nn2cccc2c(=O)[nH]1` [Q-0533], the IC50 was 69 nM. Work on `CCCC(C#N)C1CCN(C(=O)c2cnn(-c3nn4cccc4c(=O)[nH]3)c2C)CC1` (centres unmarked) [Q-0858] yielded an IC50 of 44 nM. Compound `Cc1c(C(=O)N2C[C@H]3C[C@@H]2CN3C(=O)OC(C)(C)C)cnn1-c1nn2cccc2c(=O)[nH]1` [Q-0860] has an IC50 of 1000 nM. `Cc1c(C(=O)N2CC(CN(C)C(=O)OC(C)(C)C)C2)cnn1-c1nn2cccc2c(=O)[nH]1` [Q-0861] was tested, and the IC50 was 400 nM. In the case of `Cc1c(C(=O)N2CCN3C(=O)CC[C@@H]3C2)cnn1-c1nn2cccc2c(=O)[nH]1` [Q-0862], the IC50 is reported as 10000 nM. Work on `O=C(c1cnn(-c2nn3c(F)ccc3c(=O)[nH]2)c1C1CC1)N1CCC1` [Q-0863] yielded an IC50 of 600 nM. `Cc1c(C(=O)N2CCC3C(CCN3C(=O)OC(C)(C)C)C2)cnn1-c1nn2cccc2c(=O)[nH]1` (centres unmarked) [Q-0865] was tested, and the IC50 was 100 nM.

Each compound was assayed against SNAP-hSPR (sepiapterin reductase, SPR) (Homo sapiens, UniProt P35270) (assay: biochemical). Conditions: terbium labelled SNAP-hSPR / SSZ labelled SNAP-EGFP; read-out: hTR-FRET IC50.
SNAP-hSPR (sepiapterin reductase, SPR), sequence (P35270 whole entry): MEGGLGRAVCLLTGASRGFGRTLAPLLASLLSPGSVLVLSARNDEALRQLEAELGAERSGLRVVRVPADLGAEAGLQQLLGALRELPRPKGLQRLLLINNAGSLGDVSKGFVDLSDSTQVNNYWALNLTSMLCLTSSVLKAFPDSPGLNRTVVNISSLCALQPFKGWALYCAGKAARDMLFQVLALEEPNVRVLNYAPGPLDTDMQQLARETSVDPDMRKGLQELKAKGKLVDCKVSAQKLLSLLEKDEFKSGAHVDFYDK
Type: binding
`Cc1c(C(N2CCC(C(F)(F)F)CC2)C(F)(F)F)cnn1-c1nc2c(c(=O)[nH]1)CCC2` (centres unmarked) [Q-0503, 2-(5-methyl-4-{2,2,2-trifluoro-1-[4-(trifluoromethyl)piperidin-1-yl]ethyl}-1H-pyrazol-1-yl)-3H,4H,5H,6H,7H-cyclopenta[d]pyrimidin-4-one] gave an IC50 of 4000 nM. In the case of `O=c1[nH]c(-c2cc(Br)ccn2)nc2ccsc12` [Q-0540], the IC50 is reported as 300 nM. For `Cc1c(C(=O)O)cnn1-c1nc2ccsc2c(=O)[nH]1` [Q-0541], the IC50 was 200 nM. Compound `Cc1c(C(=O)O)cnn1-c1nc2sccc2c(=O)[nH]1` [Q-0542] has an IC50 of 100 nM. `O=C(O)c1cnn(-c2nc3c(c(=O)[nH]2)CCC3)c1C1CC1` [Q-0544] showed an IC50 of 30 nM. Compound `Cc1c(C(=O)N2CCC(c3nc(C(N)=O)cs3)CC2)cnn1-c1nn2cccc2c(=O)[nH]1` [Q-1090] has an IC50 of 1 nM. `Cc1c(C(=O)N2CCN(c3nnc(-c4cccnc4)o3)CC2)cnn1-c1nn2cccc2c(=O)[nH]1` [Q-1150] showed an IC50 of 1 nM. `Cc1c(C(=O)N2CCNCC2)cnn1-c1nn2cccc2c(=O)[nH]1` [Q-1251] gave an IC50 of 50 nM. For `Cc1c(C(=O)N2CCN(CC(F)(F)F)CC2)cnn1-c1nc2c(ccn2C)c(=O)[nH]1` [Q-1266], the IC50 was 200 nM. `CCn1ccc2c(=O)[nH]c(-n3ncc(C(=O)N4CCN(CC(F)(F)F)CC4)c3C)nc21` [Q-1292] was tested, and the IC50 was 5000 nM. In the case of `Cc1c(C(=O)N2CC3(C2)CC(F)(F)C3)cnn1-c1nc2[nH]ncc2c(=O)[nH]1` [Q-1295], the IC50 is reported as 2400 nM. In the case of `Cc1c(C(=O)N2CCN(CC(F)(F)F)CC2)cnn1-c1nc2[nH]ncc2c(=O)[nH]1` [Q-1296], the IC50 is reported as 600 nM. With `Cc1c(C(=O)N2CC3(C2)CC(F)(F)C3)cnn1-c1nc2c(ccn2C)c(=O)[nH]1` [Q-1306] the IC50 was 500 nM. `CCn1ccc2c(=O)[nH]c(-n3ncc(C(=O)N4CC(N5CCC(F)(F)C5)C4)c3C)nc21` [Q-1311] gave an IC50 of 5000 nM. `CCn1ccc2c(=O)[nH]c(-n3ncc(C(=O)N4CC5(C4)CC(F)(F)C5)c3C)nc21` [Q-1313] was tested, and the IC50 was 5000 nM. `Cc1c(C(=O)N2CCC2c2ccnc(F)c2)cnn1-c1nn2cccc2c(=O)[nH]1` (centres unmarked) [Q-1320] was tested, and the IC50 was 20 nM. With `Cc1c(C(=O)N2CC(N3CCC(F)(F)C3)C2)cnn1-c1nc2c(ccn2C)c(=O)[nH]1` [Q-1322] the IC50 was 400 nM. `CCn1ccc2c(=O)[nH]c(-n3ncc(C(=O)N4CC5CC(C4)N5CC(F)(F)F)c3C)nc21` [Q-1341] gave an IC50 of 5000 nM. `Cc1c(C(=O)N2CC(N3CCC(F)(F)C3)C2)cnn1-c1nc2c(c(=O)[nH]1)COC2` [Q-1343] gave an IC50 of 70 nM. In the case of `Cc1c(C(=O)N2CC(N3CCC(F)(F)C3)C2)cnn1-c1nc2[nH]ncc2c(=O)[nH]1` [Q-1345], the IC50 is reported as 1400 nM. With `Cc1c(C(=O)N2CC3(C2)CC(F)(F)C3)cnn1-c1nc2c(c(=O)[nH]1)COC2` [Q-1346] the IC50 was 50 nM. Work on `Cc1c(C(=O)N2CC3CC(C2)N3CC(F)(F)F)cnn1-c1nc2c(ccn2C)c(=O)[nH]1` [Q-1365] yielded an IC50 of 1000 nM. `Cc1c(C(=O)N2CC3CC(C2)N3CC(F)(F)F)cnn1-c1nc2c(c(=O)[nH]1)COC2` [Q-1483] gave an IC50 of 30 nM. For `Cc1c(C(=O)N2CC3CC(C2)N3CC(F)(F)F)cnn1-c1nc2[nH]ncc2c(=O)[nH]1` [Q-1560], the IC50 was 800 nM. `Cc1c(C(=O)N2CCN(CC(F)(F)F)CC2)cnn1-c1nc2c(c(=O)[nH]1)CC(C)(C)C2` [Q-1563] gave an IC50 of 5000 nM. `Cc1c(C(=O)N2CC(N3CCC(F)(F)C3)C2)cnn1-c1nc2c(c(=O)[nH]1)CC(C)(C)C2` [Q-1564, 2-(4-(3-(3,3-difluoropyrrolidin-1-yl)azetidine-1-carbonyl)-5-methyl-1H-pyrazol-1-yl)-6,6-dimethyl-6,7-dihydro-3H-cyclopenta[d]pyrimidin-4(5H)-one] gave an IC50 of 5000 nM. For `Cc1c(C(=O)N2CC3(C2)CC(F)(F)C3)cnn1-c1nc2c(c(=O)[nH]1)CC(C)(C)C2` [Q-1565], the IC50 was 5000 nM. Work on `Cc1c(C(=O)O)cnn1-c1nc2c(c(=O)[nH]1)CC(C)(C)C2` [Q-1597] yielded an IC50 of 5000 nM. Work on `COC(=O)c1cnn(-c2nc3c(c(=O)[nH]2)CC(C)(C)C3)c1C` [Q-1641] yielded an IC50 of 5000 nM. With `Cc1c(C(=O)N2CCN(S(=O)(=O)c3ccc(OC(F)(F)F)cc3)CC2)cnn1-c1nn2cccc2c(=O)[nH]1` [Q-1798, 2-(5-methyl-4-(4-(4-(trifluoromethoxy)phenylsulfonyl)piperazine-1-carbonyl)-1H-pyrazol-1-yl)pyrrolo[1,2-f][1,2,4]triazin-4(3H)-one] the IC50 was 2 nM. Work on `Cc1c(C(=O)N2CCN(S(=O)(=O)c3ccc(C(C)(C)C)cc3)CC2)cnn1-c1nn2cccc2c(=O)[nH]1` [Q-1800] yielded an IC50 of 2 nM. Work on `Cc1c(C(=O)N2CCN(S(=O)(=O)c3ccc(F)c(Cl)c3)CC2)cnn1-c1nn2cccc2c(=O)[nH]1` [Q-1801] yielded an IC50 of 2 nM. `COc1ccc(S(=O)(=O)N2CCN(C(=O)c3cnn(-c4nn5cccc5c(=O)[nH]4)c3C)CC2)cc1` [Q-1804] gave an IC50 of 2 nM. Work on `Cc1c(C(=O)N2CCN(S(=O)(=O)c3cc(Cl)c(Cl)s3)CC2)cnn1-c1nn2cccc2c(=O)[nH]1` [Q-1814] yielded an IC50 of 2 nM. `Cc1c(C(=O)N2CCN(S(=O)(=O)c3cccc4c(N(C)C)cccc34)CC2)cnn1-c1nn2cccc2c(=O)[nH]1` [Q-1815] showed an IC50 of 2 nM. Compound `Cc1c(C(=O)N2CCN(S(=O)(=O)c3cc(Cl)ccc3Cl)CC2)cnn1-c1nn2cccc2c(=O)[nH]1` [Q-1825] has an IC50 of 2 nM. `Cc1c(C(=O)N2CCN(S(=O)(=O)c3cccc(C(F)(F)F)c3)CC2)cnn1-c1nn2cccc2c(=O)[nH]1` [Q-1826] gave an IC50 of 2 nM. In the case of `CC(=O)Nc1nc(C)c(S(=O)(=O)N2CCN(C(=O)c3cnn(-c4nn5cccc5c(=O)[nH]4)c3C)CC2)s1` [Q-1827], the IC50 is reported as 1 nM. `Cc1c(C(=O)N2CCN(S(=O)(=O)c3ccc4c(c3)OCO4)CC2)cnn1-c1nn2cccc2c(=O)[nH]1` [Q-1829] was tested, and the IC50 was 2 nM. Compound `Cc1c(C(=O)N2CCN(S(=O)(=O)c3ccc(Cl)c(Cl)c3)CC2)cnn1-c1nn2cccc2c(=O)[nH]1` [Q-1830] has an IC50 of 2 nM. `Cc1c(C(=O)N2CCN(S(=O)(=O)c3ccc4ccccc4c3)CC2)cnn1-c1nn2cccc2c(=O)[nH]1` [Q-1831] showed an IC50 of 3 nM. For `Cc1c(C(=O)N2CCN(S(=O)(=O)c3cnn(C)c3)CC2)cnn1-c1nn2cccc2c(=O)[nH]1` [Q-1832], the IC50 was 3 nM. `CC(=O)Nc1ccc(S(=O)(=O)N2CCN(C(=O)c3cnn(-c4nn5cccc5c(=O)[nH]4)c3C)CC2)cc1` [Q-1833] showed an IC50 of 1 nM. `Cc1c(C(=O)N2CCN(S(=O)(=O)c3ccc(C(F)(F)F)cc3)CC2)cnn1-c1nn2cccc2c(=O)[nH]1` [Q-1834] showed an IC50 of 1 nM. `Cc1c(C(=O)N2CCN(S(=O)(=O)c3cc(C(F)(F)F)cc(C(F)(F)F)c3)CC2)cnn1-c1nn2cccc2c(=O)[nH]1` [Q-1835] showed an IC50 of 4 nM. Work on `Cc1c(C(=O)N2CCN(S(=O)(=O)c3ccc(Br)cc3)CC2)cnn1-c1nn2cccc2c(=O)[nH]1` [Q-1837] yielded an IC50 of 1 nM. Compound `COc1ccc(OC)c(S(=O)(=O)N2CCN(C(=O)c3cnn(-c4nn5cccc5c(=O)[nH]4)c3C)CC2)c1` [Q-1839] has an IC50 of 2 nM. Compound `Cc1c(C(=O)N2CCN(S(=O)(=O)c3ccc(Cl)c(C(F)(F)F)c3)CC2)cnn1-c1nn2cccc2c(=O)[nH]1` [Q-1840] has an IC50 of 3 nM. Compound `Cc1c(C(=O)N2CCN(S(=O)(=O)c3cccc(C(=O)O)c3)CC2)cnn1-c1nn2cccc2c(=O)[nH]1` [Q-1845] has an IC50 of 2 nM. For `Cc1c(C(=O)N2CCN(S(=O)(=O)c3cnc4ccccc4c3)CC2)cnn1-c1nn2cccc2c(=O)[nH]1` [Q-1864], the IC50 was 4 nM. `Cc1c(C(=O)N2CCN(S(=O)(=O)c3ccc(Cl)c4nonc34)CC2)cnn1-c1nn2cccc2c(=O)[nH]1` [Q-1885] showed an IC50 of 10 nM. With `Cc1c(C(=O)N2CCC(S(=O)(=O)c3ccccc3)CC2)cnn1-c1nn2cccc2c(=O)[nH]1` [Q-1984] the IC50 was 1 nM. Work on `Cc1c(C(=O)N2CCC(S(C)(=O)=O)CC2)cnn1-c1nn2cccc2c(=O)[nH]1` [Q-1985] yielded an IC50 of 2 nM. `Cc1c(C(=O)N2CCC(S(=O)(=O)N3CCCC3)CC2)cnn1-c1nn2cccc2c(=O)[nH]1` [Q-2007] gave an IC50 of 1 nM. With `Cc1c(C(=O)N2CCc3[nH]nc(C(F)(F)F)c3C2)cnn1-c1nn2cccc2c(=O)[nH]1` [Q-2031] the IC50 was 3 nM. `Cc1c(C(=O)N2CCN(C(=O)c3ccco3)CC2)cnn1-c1nn2cccc2c(=O)[nH]1` [Q-2032] was tested, and the IC50 was 6 nM. Compound `Cc1c(C(=O)N2CCN(C3COC3)CC2)cnn1-c1nn2cccc2c(=O)[nH]1` [Q-2041] has an IC50 of 3 nM. `Cc1c(C(=O)N2CC(c3ccncc3F)C2)cnn1-c1nn2cccc2c(=O)[nH]1` [Q-2043] gave an IC50 of 5 nM. With `Cc1c(C(=O)N2CCc3c(c(C(F)(F)F)nn3C)C2)cnn1-c1nn2cccc2c(=O)[nH]1` [Q-2048] the IC50 was 4 nM. `Cc1c(C(=O)N2CC[C@@H]2c2ccc(F)nc2)cnn1-c1nn2cccc2c(=O)[nH]1` [Q-2054] was tested, and the IC50 was 4 nM. `Cc1c(C(=O)N2CC[C@H]2c2ccc(F)nc2)cnn1-c1nn2cccc2c(=O)[nH]1` [Q-2055] was tested, and the IC50 was 7 nM.
